Source: patent publication US10457655B2, “Compounds and compositions for inhibition of FASN” (FORMA Therapeutics, Inc., priority 2013, dated 2019)

What follows are molecules tested against FASN enzyme (Homo sapiens, UniProt P49327) (assay: Enzymatic Assay for FASN Inhibitors). Settings: not given.
Type: biochemical
Procedure: Assays were performed in a 384-well black plate to measure the inhibition of FASN activities by individual compounds herein disclosed. An aliquot of 250 nL of compound was incubated with 10 μL of 40 nM FASN enzyme in assay buffer (50 mM HEPES pH=7.3, 0.5 mM EDTA, 1 mM Ascorbate, 100 mM NaCl and 0.04% TritonX-100) in each well at 25° C. for 60 minutes. After the plate was centrifuged briefly, 10 μL of substrate mix (20 μM Acetyl-CoA, 60 μM Malonyl-CoA, and 100 μM NADPH in assay buffer) was added to each well. The reaction was maintained at 25° C. for 90 minutes. The reaction was then quenched by adding 10 μL of 90 μM 7-Diethylamino-3-(4′-Maleimidylpheynyl)-4-Methylcoumarin in 50/50 Ethanol/H2O solution. The assay plate was incubated at 25° C. for 15 minutes, and read on a plate reader with excitation and emission wavelength at 360 nm and 530 nm, respectively. The IC50 of a given compound was calculated by fitting the dose response curve with a four parameter logistic equation.

Sequence of FASN enzyme (P49327 whole entry): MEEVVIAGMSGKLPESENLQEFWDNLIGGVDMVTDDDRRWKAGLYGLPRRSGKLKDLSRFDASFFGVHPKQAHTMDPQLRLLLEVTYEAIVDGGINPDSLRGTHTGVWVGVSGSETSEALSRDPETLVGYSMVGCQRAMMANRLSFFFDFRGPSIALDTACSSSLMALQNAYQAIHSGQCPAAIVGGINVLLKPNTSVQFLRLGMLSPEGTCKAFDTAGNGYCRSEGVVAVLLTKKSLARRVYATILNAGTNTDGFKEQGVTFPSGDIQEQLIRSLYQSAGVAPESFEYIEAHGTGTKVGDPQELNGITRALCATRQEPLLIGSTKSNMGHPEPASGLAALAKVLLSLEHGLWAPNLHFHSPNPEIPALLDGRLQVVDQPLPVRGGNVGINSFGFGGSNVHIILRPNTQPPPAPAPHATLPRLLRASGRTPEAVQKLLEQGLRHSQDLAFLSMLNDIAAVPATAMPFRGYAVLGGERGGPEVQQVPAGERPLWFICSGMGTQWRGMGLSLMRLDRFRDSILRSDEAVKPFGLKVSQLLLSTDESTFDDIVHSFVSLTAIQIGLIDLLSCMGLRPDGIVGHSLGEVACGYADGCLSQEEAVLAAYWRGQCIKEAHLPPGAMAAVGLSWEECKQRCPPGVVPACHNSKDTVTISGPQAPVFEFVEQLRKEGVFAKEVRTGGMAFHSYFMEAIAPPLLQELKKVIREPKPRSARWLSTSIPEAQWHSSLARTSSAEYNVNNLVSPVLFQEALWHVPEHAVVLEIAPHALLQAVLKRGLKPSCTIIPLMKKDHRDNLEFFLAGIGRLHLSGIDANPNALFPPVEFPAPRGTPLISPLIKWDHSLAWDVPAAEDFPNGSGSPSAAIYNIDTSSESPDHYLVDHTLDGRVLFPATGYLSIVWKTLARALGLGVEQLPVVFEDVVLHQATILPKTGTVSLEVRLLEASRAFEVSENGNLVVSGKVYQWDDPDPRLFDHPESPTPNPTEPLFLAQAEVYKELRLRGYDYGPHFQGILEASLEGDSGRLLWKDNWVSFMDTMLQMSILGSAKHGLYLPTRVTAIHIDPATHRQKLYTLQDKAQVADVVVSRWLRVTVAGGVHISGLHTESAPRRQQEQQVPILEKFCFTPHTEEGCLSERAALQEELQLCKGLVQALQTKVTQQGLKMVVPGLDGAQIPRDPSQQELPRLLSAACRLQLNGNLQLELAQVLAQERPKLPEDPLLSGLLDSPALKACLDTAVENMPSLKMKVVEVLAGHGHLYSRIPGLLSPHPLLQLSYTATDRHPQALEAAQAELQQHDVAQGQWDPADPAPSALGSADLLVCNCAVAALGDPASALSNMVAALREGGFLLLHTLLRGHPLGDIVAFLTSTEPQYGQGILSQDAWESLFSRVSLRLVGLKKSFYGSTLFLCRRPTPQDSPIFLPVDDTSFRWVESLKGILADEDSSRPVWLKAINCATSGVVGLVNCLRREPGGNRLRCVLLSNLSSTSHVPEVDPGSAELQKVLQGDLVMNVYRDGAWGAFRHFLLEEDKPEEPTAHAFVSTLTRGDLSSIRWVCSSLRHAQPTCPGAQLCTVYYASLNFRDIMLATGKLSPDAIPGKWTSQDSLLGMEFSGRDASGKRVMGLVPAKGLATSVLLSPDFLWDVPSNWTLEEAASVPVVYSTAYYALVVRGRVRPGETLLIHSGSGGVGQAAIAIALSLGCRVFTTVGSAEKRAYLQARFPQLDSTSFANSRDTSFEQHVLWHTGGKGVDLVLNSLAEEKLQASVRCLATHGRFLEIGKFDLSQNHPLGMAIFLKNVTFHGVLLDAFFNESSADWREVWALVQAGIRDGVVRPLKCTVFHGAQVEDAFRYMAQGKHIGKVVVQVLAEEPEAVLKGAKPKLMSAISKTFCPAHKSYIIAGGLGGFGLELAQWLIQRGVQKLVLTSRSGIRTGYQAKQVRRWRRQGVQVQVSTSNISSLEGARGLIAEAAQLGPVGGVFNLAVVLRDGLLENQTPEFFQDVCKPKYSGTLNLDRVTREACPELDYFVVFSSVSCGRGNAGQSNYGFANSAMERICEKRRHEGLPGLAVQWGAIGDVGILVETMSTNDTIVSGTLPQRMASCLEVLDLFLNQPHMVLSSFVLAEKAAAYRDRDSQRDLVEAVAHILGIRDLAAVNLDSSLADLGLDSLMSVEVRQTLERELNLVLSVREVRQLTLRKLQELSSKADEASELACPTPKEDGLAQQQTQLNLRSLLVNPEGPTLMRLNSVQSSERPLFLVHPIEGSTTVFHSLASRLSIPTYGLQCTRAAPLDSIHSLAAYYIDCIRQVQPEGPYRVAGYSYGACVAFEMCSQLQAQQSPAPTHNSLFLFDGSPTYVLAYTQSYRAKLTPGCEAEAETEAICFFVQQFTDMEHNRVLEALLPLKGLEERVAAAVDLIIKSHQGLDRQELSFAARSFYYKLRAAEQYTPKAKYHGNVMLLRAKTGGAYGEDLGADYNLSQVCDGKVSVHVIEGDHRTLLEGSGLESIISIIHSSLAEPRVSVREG

Row | IC50 | SMILES
1 | < 0.5 µM | O=C(c1ccc(-c2ccc3cc(F)ccc3n2)c(F)c1F)N1CCN(C(=O)C2(O)CC2)CC1 [1-[(4-{[2,3-difluoro-4-(6-fluoroquinolin-2-yl)phenyl]carbonyl}piperazin-1-yl)carbonyl]cyclopropan-1-ol]
2 | < 0.5 µM | COc1ccc2nc(-c3ccc(C(=O)N4CCN(C(=O)C5(O)CC5)CC4)c(F)c3F)ccc2c1 [1-[(4-{[2,3-difluoro-4-(6-methoxyquinolin-2-yl)phenyl]carbonyl}piperazin-1-yl)carbonyl]cyclopropan-1-ol]
3 | < 0.5 µM | O=C(c1ccc(-c2ccc3cc(F)ccc3n2)cc1F)N1CCN(C(=O)C2(O)CC2)CC1 [1-[(4-{[2-fluoro-4-(6-fluoroquinolin-2-yl)phenyl]carbonyl}piperazin-1-yl)carbonyl]cyclopropan-1-ol]
4 | < 0.5 µM | O=C(c1ccc(-c2ccc3ncccc3c2)c(F)c1)N1CCN(C(=O)C2(O)CC2)CC1 [1-[(4-{[3-fluoro-4-(quinolin-6-yl)phenyl]carbonyl}piperazin-1-yl)carbonyl]cyclopropan-1-ol]
5 | < 0.5 µM | Cn1ncc2cc(-c3ccc(C(=O)N4CCN(C(=O)C5(O)CC5)CC4)cc3)ccc21 [1-[(4-{[4-(1-methyl-1H-indazol-5-yl)phenyl]carbonyl}piperazin-1-yl)carbonyl]cyclopropan-1-ol]

Second part, the molecule before the results:

Row | SMILES | IC50
6 | C[C@H]1CN(C(=O)c2ccc(N3CCc4cccnc4C3)cc2)CCN1C(=O)C1(O)CC1 [1-[(2S)-2-methyl-4-[4-(5,6,7,8-tetrahydro-1,7-naphthyridin-7-yl)benzoyl]piperazine-1-carbonyl]cyclopropan-1-ol] | < 0.5 µM
7 | C[C@H]1CN(C(=O)c2ccc(-c3ccc4c(c3)ncn4C)cc2F)CCN1C(=O)C1(O)CC1 [1-[(2S)-4-[2-fluoro-4-(1-methyl-1H-1,3-benzodiazol-5-yl)benzoyl]-2-methylpiperazine-1-carbonyl]cyclopropan-1-ol] | < 0.5 µM
8 | Cc1nn(C)c2ccc(-c3ccc(C(=O)N4CCN(C(=O)C5(O)CC5)[C@@H](C)C4)cc3)cc12 [1-[(2S)-4-[4-(1,3-dimethyl-1H-indazol-5-yl)benzoyl]-2-methylpiperazine-1-carbonyl]cyclopropan-1-ol] | < 0.5 µM
9 | C[C@H]1CN(C(=O)c2ccc(-c3nc4ccc(Cl)cc4o3)cc2)CCN1C(=O)C1(O)CC1 [1-[(2S)-4-[4-(6-chloro-1,3-benzoxazol-2-yl)benzoyl]-2-methylpiperazine-1-carbonyl]cyclopropan-1-ol] | < 0.5 µM
10 | C[C@H]1CN(C(=O)c2ccc(-c3nc4ccc(F)cc4o3)cc2)CCN1C(=O)C1(N)CC1 [1-[(2S)-4-[4-(6-fluoro-1,3-benzoxazol-2-yl)benzoyl]-2-methylpiperazine-1-carbonyl]cyclopropan-1-amine] | < 0.5 µM
11 | C[C@H]1CN(C(=O)c2ccc(-c3cccc(S(=O)(=O)C4CC4)c3)cc2)CCN1C(=O)C1(O)CC1 [1-[(2S)-4-{4-[3-(cyclopropanesulfonyl)phenyl]benzoyl}-2-methylpiperazine-1-carbonyl]cyclopropan-1-ol] | < 0.5 µM
12 | C[C@@H]1CN(C(=O)c2ccc(-c3ccc(Cl)cc3F)cc2)C[C@H](C)N1C(=O)C1(O)CC1 [1-[(2S,6R)-4-[4-(4-chloro-2-fluorophenyl)benzoyl]-2,6-dimethylpiperazine-1-carbonyl]cyclopropan-1-ol] | < 0.5 µM
13 | C[C@@H]1CN(C(=O)c2ccc(-c3nc4ccc(F)cc4o3)cc2)C[C@H](C)N1C(=O)C1(N)CC1 [1-[(2S,6R)-4-[4-(6-fluoro-1,3-benzoxazol-2-yl)benzoyl]-2,6-dimethylpiperazine-1-carbonyl]cyclopropan-1-amine] | < 0.5 µM
14 | C[C@@H]1CN(C(=O)C2(O)CC2)CCN1C(=O)c1ccc(-c2ccc3c(c2)ncn3C)cc1 [1-[(3R)-3-methyl-4-[4-(1-methyl-1H-1,3-benzodiazol-5-yl)benzoyl]piperazine-1-carbonyl]cyclopropan-1-ol] | < 0.5 µM
15 | C[C@@H]1CN(C(=O)C2(O)CC2)CCN1C(=O)c1ccc(-c2nc3ccc(F)cc3o2)cc1 [1-[(3R)-4-[4-(6-fluoro-1,3-benzoxazol-2-yl)benzoyl]-3-methylpiperazine-1-carbonyl]cyclopropan-1-ol] | < 0.5 µM
16 | C[C@H]1CN(C(=O)C2(N)CC2)CCN1C(=O)c1ccc(-c2ccc3c(c2)ncn3C)cc1 [1-[(3S)-3-methyl-4-[4-(1-methyl-1H-1,3-benzodiazol-5-yl)benzoyl]piperazine-1-carbonyl]cyclopropan-1-amine] | < 0.5 µM
17 | C[C@H]1CN(C(=O)C2(O)CC2)CCN1C(=O)c1ccc(-c2ccc(Cl)cc2F)cc1 [1-[(3S)-4-[4-(4-chloro-2-fluorophenyl)benzoyl]-3-methylpiperazine-1-carbonyl]cyclopropan-1-ol] | < 0.5 µM
18 | C[C@H]1CN(C(=O)C2(O)CC2)CCN1C(=O)c1ccc(-c2nc3ccc(F)cc3o2)cc1 [1-[(3S)-4-[4-(6-fluoro-1,3-benzoxazol-2-yl)benzoyl]-3-methylpiperazine-1-carbonyl]cyclopropan-1-ol] | < 0.5 µM
19 | O=C(c1ccc(-c2cccc3ocnc23)cc1)N1CCN(C(=O)C2(O)CC2)CC1 [1-[(4-{[4-(1,3-benzoxazol-4-yl)phenyl]carbonyl}piperazin-1-yl)carbonyl]cyclopropan-1-ol] | < 0.5 µM

Same assay, conditions: FASN enzymatic assay; Table 2-2

Row | SMILES | IC50
20 | O=C(c1ccc2nc(-c3ccc(F)cc3)sc2c1)N1CCN(C(=O)C2(O)CC2)CC1 [1-[(4-{[2-(4-fluorophenyl)-1,3-benzothiazol-6-yl]carbonyl}piperazin-1-yl)carbonyl]cyclopropan-1-ol] | 0.5 to 5 µM
21 | COc1cc(-c2cnc3ccccc3c2)ccc1C(=O)N1CCN(C(=O)C2(O)CC2)CC1 [1-[(4-{[2-methoxy-4-(quinolin-3-yl)phenyl]carbonyl}piperazin-1-yl)carbonyl]cyclopropan-1-ol] | 0.5 to 5 µM
22 | COc1cc(-c2ccc3ncccc3c2)ccc1C(=O)N1CCN(C(=O)C2(O)CC2)CC1 [1-[(4-{[2-methoxy-4-(quinolin-6-yl)phenyl]carbonyl}piperazin-1-yl)carbonyl]cyclopropan-1-ol] | 0.5 to 5 µM
23 | COc1cc(C(=O)N2CCN(C(=O)C3(O)CC3)CC2)ccc1-c1ccc2ncccc2c1 [1-[(4-{[3-methoxy-4-(quinolin-6-yl)phenyl]carbonyl}piperazin-1-yl)carbonyl]cyclopropan-1-ol] | 0.5 to 5 µM
24 | COc1cc(-c2ccc3scnc3c2)ccc1C(=O)N1CCN(C(=O)C2(O)CC2)CC1 [1-[(4-{[4-(1,3-benzothiazol-5-yl)-2-methoxyphenyl]carbonyl}piperazin-1-yl)carbonyl]cyclopropan-1-ol] | 0.5 to 5 µM
25 | Cn1c(-c2ccc(C(=O)N3CCN(C(=O)C4(O)CC4)CC3)cc2)nc2ccccc21 [1-[(4-{[4-(1-methyl-1H-1,3-benzodiazol-2-yl)phenyl]carbonyl}piperazin-1-yl)carbonyl]cyclopropan-1-ol] | 0.5 to 5 µM

Same assay, conditions: FASN enzymatic assay; Table 2-3

Row | SMILES | IC50
26 | Cc1nc(-c2ccc3scnc3c2)sc1C(=O)N1CCN(C(=O)C2(O)CC2)CC1 [1-[(4-{[2-(1,3-benzothiazol-5-yl)-4-methyl-1,3-thiazol-5-yl]carbonyl}piperazin-1-yl)carbonyl]cyclopropan-1-ol] | ≥ 5 µM
27 | O=C(c1ccc(-c2cnc3cccnc3c2)cc1)N1CCN(C(=O)C2(O)CC2)CC1 [1-[(4-{[4-(1,5-naphthyridin-3-yl)phenyl]carbonyl}piperazin-1-yl)carbonyl]cyclopropan-1-ol] | ≥ 5 µM
28 | Cn1ncc2cccc(-c3ccc(C(=O)N4CCN(C(=O)C5(O)CC5)CC4)cc3)c21 [1-[(4-{[4-(1-methyl-1H-indazol-7-yl)phenyl]carbonyl}piperazin-1-yl)carbonyl]cyclopropan-1-ol] | ≥ 5 µM
